These results are taken from patent US6214859A, “Ethylamine derivatives” (Fujimoto Brothers Co., Ltd., priority 1997, dated 2001).

Data set [1] has as its system dopamine release, substantia nigra. Description: Release of biogenic amines from brain tissue: dopamine, substantia nigra. Type of data set: in vivo, Wistar rats. The method, then:
(§1) The method described in Life Sci., 56, 611-620 (1995) was used. After Wistar rats were decapitated, appropriate brain samples, which were striatun, substantia nigra, tuberculum olfactorium, locus coeruleus and raphe, were removed quickly and soaked in oxygenated (95% O2 and 5% CO2) Krebs solution at 37° C. The composition of Krebs solution was as follows in […]: NaCl 111, KCl 4.7, CaCl2 2.5, MgSO4 1.64, NaHCO3 25, KH2 PO4 1.2, glucose 11, 50 mg/l ascorbic add and 20 mg/l EDTA-2 Na. The preparations, soaked in one organ bath, were as follows: 1) four pieces of striatum (each halved), 2) four pieces of substantia nigra, 3) four pieces of tuberculum olfactorium; 4) eight pieces of locus coeruleus; 5) eight pieces of raphe. After incubation of the appropriate tissue for 20 min, the Krebs solution was replaced, the tissue soaked for 20 min in Krebs solution dissolving the compounds of this invention and the amount of biogenic amine released during this period of time was estimate. The compounds of this invention and PPAP, control compound, were dissolved in saline and were administered subcutaneously before 30 min to removing brain sample. For measuring noradrenaline and dopamine, samples were purified on 60 mg alumina containing micro columns (BDH Chemicals Ltd.) according to the method described in J. Pharmacol. Exp. Ther., 138, 360-372 (1962) For measuring serotonin, samples were purified on 15 mg Sephadex G-10 micro columns (Pharmacia). Dopamine, noradrenaline and serotonin were determined by high performance liquid chromatography (Waters 746 data module) with electrochemical detection (Waters 460 electrochemical detector). Waters Resolve 5μ Spherical C18 3.9×150 mm column was used as separating column and triethylamine-phosphate buffer (pH 5.2), containing 200 mg/l octane sulfonate sodium and 18 mg/l EDTA-2 Na with 6% acetonitrile, was used as mobile phase. The release amount of appropriate amine was noted as nmol/g tissue released for 20 min. deference of means tested by Student's t-test and significant level was set at P<.05.

Data set [2] deals with serotonin release, raphe. Description: Release of biogenic amines from brain tissue: serotonin, raphe. Type of data set: in vivo, Wistar rats. Here is the method:
as §1

Data set [3] deals with T1, human platelet MAO-B (Homo sapiens, UniProt P27338).
T1 construct: The suspension was used as enzyme for MAO activity assay in blood platelets; from tissue; host or cells: human blood platelets (frozen, thawed and sonicated platelet rich plasma)
T1 sequence (P27338 1-520): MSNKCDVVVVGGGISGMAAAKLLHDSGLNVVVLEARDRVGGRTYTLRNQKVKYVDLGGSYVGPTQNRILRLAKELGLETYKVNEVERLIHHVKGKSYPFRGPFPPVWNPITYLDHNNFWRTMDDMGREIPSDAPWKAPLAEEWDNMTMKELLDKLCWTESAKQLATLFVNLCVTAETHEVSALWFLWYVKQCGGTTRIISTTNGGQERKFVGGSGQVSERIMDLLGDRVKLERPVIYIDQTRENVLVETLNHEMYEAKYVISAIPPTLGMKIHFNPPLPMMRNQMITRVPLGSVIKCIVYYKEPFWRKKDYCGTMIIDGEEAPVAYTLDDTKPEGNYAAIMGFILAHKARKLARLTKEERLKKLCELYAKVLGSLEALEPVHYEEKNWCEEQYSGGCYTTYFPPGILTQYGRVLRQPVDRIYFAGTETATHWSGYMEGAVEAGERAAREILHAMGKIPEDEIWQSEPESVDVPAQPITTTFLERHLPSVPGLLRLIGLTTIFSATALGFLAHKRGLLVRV
Description: biochemical. Conditions: 10^-5 M; read-out: Inhibition rate of MAO-B. The method, then: Human blood added with 3.8% citric acid was centrifuged at 950 rpm for 10 min and platelet rich plasma (PRP) was obtained. The residual blood cell was centrifuged at 3,000 rpm for 10 min and platelet poor plasma (PPP) was obtained. After blood platelets were measured from a part of PRP, PRP and PPP were frozen at -20° C. They were thawed and were sonicated to be dispersed and suspended when MAO activity was measured. The suspension was used as enzyme for MAO activity assay in blood platelets. In addition, almost all of MAO in blood platelets have been known to be B type.
MAO-B activity was determined according to the method described in Biochem. Pharmacol., 14, 1684-1685 (1965). […] The mixture was incubated at 37° C. for 5 min. After 80 μl of PRP or PPP was added to it, the mixture was incubated at 37° C. for 20 min. Thereafter, 120 μl of substrate (0.33 mg/ml kynuramine dihydrobromide) was added thereto. After incubation at 37° C. for 30 min, 800 μl of 10% trichloroacetic acid were added to stop the reaction and the solution was centrifuged at 3,000 rpm for 10 min. To 1 ml of the supernatant, 2 ml of 1 N NaOH was added and fluorescence of the solution was measured at Ex 312 nm and Em 380 nm. PRP was prepared to 250,000 cell/μl as amounts of blood platelets with […] phosphate buffer solution and 4-hydroxyquinoline was used as standard for measurement.

Data set [4] has as its system noradrenaline release, locus coeruleus. The data set is described as follows: Release of biogenic amines from brain tissue: noradrenaline, locus coeruleus. The data set is classed as in vivo, Wistar rats. Here is the method:
as §1

For data set [5], the system named is rats reduced learning ability by tetrabenazine. The data set is described as follows: Conditioned avoidance task in the shuttle box (tetrabenazine-treated rats). Type of data set: in vivo, rat. To be noted: tetrabenazine 1 mg/kg s.c., significance and direction. Here is the method: The method described in Life Sci., 58, 817-827 (1996) was used. The effects on conditioned avoidance reflex (CARs) was analyzed in the shuttle box using male and female rats (weighing 200-220 g) whose leaning abilities were reduced by treatment of tetrabenazine. The instrument was constructed, according to the device described in Psychopharmacologia 10, 1-5 (1966) by the Research Institute for Electrical Industry (Budapest, Hungary). The male and female rats (weighing 200-220 g) were trained to cross the berrier under the influence of a conditioned stimulus (CS) (light flash and buzzer sounds). […] And the performance which was not related to this condition was noted as an intersignal reaction (IR). The rats were trained with 100 trials per day for 5 days. One trial consisted of 15 sec intertrial interval. The saline solution of tetrabenazine was administered at a dose of 1 mg/kg subcutaneously before one hour prior to the test and then the solution of the compounds of this invention were administered at the doses of 1, 2, 2.5 and 5 mg/kg subcutaneously with the simultaneous administration of tetrabenazine. The nmbers of CARs, EFs and IRs were automatically counted and evaluated by multi-way analysis of variance (ANOVA).

Data set [6] concerns dopamine release, striatum. Description: Release of biogenic amines from brain tissue: dopamine, striatum. Type of data set: in vivo, Wistar rats. The method, then:
as §1

Data set [7] concerns dopamine release, tuberculum olfactorium. Description: Release of biogenic amines from brain tissue: dopamine, tuberculum olfactorium. Type of data set: in vivo, Wistar rats. Here is the method: as §1
Data set [8] in a line: Toxicity screening using primary cultured hepatocyte (LDH release). The data set is classed as cell-based, rat. Conditions: rat, primary hepatocytes, 24 hr, control 0.5% saline or 0.5% DMSO, read-out: Percent control of LDH release. The method, then:
The hepatocytes was prepared from rat liver by collagenase perfusion method and suspension containing 5×10^5 cells/ml were prepared. After cultivation for 24 hr, the suspension was exchanged to the William's Medium E (GIBCO BRL) containing 10 or 100 μM of the compounds of this invention. After cultivation for 24 hr, the activity of lactate dehydrogenase (LDH) released in the medium was measured.

Take `CCCC(Cc1ccc2ccccc2c1)NCC` (stereo not shown) [Compound No. 6]: the “Release of dopamine, substantia nigra” value in data set [1] (1.00 mg/kg s.c.) is recorded as 6.7 ± 0.26 nmol/g tissue, for 20 min. The “Release of serotonin, raphe” value in data set [2] (1.00 mg/kg s.c.) is 0.708 ± 0.07 nmol/g tissue, for 20 min. Besides, the inhibition at 10 µM in data set [3] came out at 24.5%. Further, the “Release of noradrenaline, locus coeruleus” value (shortened to “Release of noradrenaline”) in data set [4] (1.00 mg/kg s.c.) is listed as 3.1 ± 0.05 nmol/g tissue, for 20 min. Further, in data set [5] (1 mg/kg s.c.), the “Condition Avoidance Reflex (CARs)” value was “**** .Arrow-up bold” and the “Escape Failures (EFs)” value was “* .dwnarw”. In data set [5] (5 mg/kg s.c.), the “Condition Avoidance Reflex (CARs)” value is on record as “**** .Arrow-up bold” and the “Escape Failures (EFs)” value is given as “* .dwnarw”. For the same molecule, the “Release of dopamine, striatum” value in data set [6] (1.00 mg/kg s.c.) is given as 3.6 ± 0.12 nmol/g tissue, for 20 min. The “Release of dopamine, tuberculum olfactorium” value in data set [7] (1.00 mg/kg s.c.) is reported as 5.3 ± 0.19 nmol/g tissue, for 20 min.
Consider `CCCNC(CC)Cc1ccc2ccccc2c1` (stereo not shown) [Compound No. 10], for which the “Release of dopamine, substantia nigra” value in data set [1] (1.00 mg/kg s.c.) is recorded as 6.2 ± 0.31 nmol/g tissue, for 20 min. Moreover, in data set [2] (1.00 mg/kg s.c.), the “Release of serotonin, raphe” value is recorded as 0.603 ± 0.10 nmol/g tissue, for 20 min. Also, the inhibition at 10 µM in data set [3] amounted to 37.2%. Also, the “Release of noradrenaline” value in data set [4] (1.00 mg/kg s.c.) is given as 2.9 ± 0.15 nmol/g tissue, for 20 min. Further, the “Release of dopamine, striatum” value in data set [6] (1.00 mg/kg s.c.) was 3.3 ± 0.22 nmol/g tissue, for 20 min. The “Release of dopamine, tuberculum olfactorium” value in data set [7] (1.00 mg/kg s.c.) is recorded as 5.6 ± 0.35 nmol/g tissue, for 20 min.
Take `CCCNC(CCC)Cc1cccc2c1OCO2.Cl` (stereo not shown) [Compound No. 28, 1-(1,3-Benzodioxol-4-yl)-2-propylaminopentane Hydrochloride]: in data set [8], the activity at 24 h, 10 µM turned out to be 93 ± 6.92%. Further, the activity at 24 h, 100 µM in data set [8] was 148 ± 6.55%. Besides, the “Release of dopamine, substantia nigra” value in data set [1] (0.25 mg/kg s.c.) is 6.1 ± 0.35 nmol/g tissue, for 20 min; in data set [1] (1.00 mg/kg s.c.), 5.4 ± 0.27 nmol/g tissue, for 20 min; in data set [1] (5.00 mg/kg s.c.) it was 4.9 ± 0.17 nmol/g tissue, for 20 min. Also, the “Release of serotonin, raphe” value is reported as 1.031 ± 0.03 nmol/g tissue, for 20 min in data set [2] (0.25 mg/kg s.c.); 1.017 ± 0.06 nmol/g tissue, for 20 min in data set [2] (1.00 mg/kg s.c.); 1.436 ± 0.01 nmol/g tissue, for 20 min in data set [2] (5.00 mg/kg s.c.). In addition, in data set [3], the inhibition at 10 µM worked out at 22.2%. Besides, the “Release of noradrenaline” value in data set [4] (0.25 mg/kg s.c.) was 3.6 ± 0.35 nmol/g tissue, for 20 min; in data set [4] (1.00 mg/kg s.c.), 3.7 ± 0.10 nmol/g tissue, for 20 min; in data set [4] (5.00 mg/kg s.c.) it was 3.9 ± 0.10 nmol/g tissue, for 20 min. Further, the “Condition Avoidance Reflex (CARs)” value in data set [5] (1 mg/kg s.c.) is “* .Arrow-up bold”; in data set [5] (2.5 mg/kg s.c.), “**** .Arrow-up bold”; in data set [5] (5 mg/kg s.c.) it was “**** .Arrow-up bold”. The “Escape Failures (EFs)” value in data set [5] (2.5 mg/kg s.c.) is listed as “**** .dwnarw”; in data set [5] (5 mg/kg s.c.), “*** .dwnarw”. Besides, the “Release of dopamine, striatum” value in data set [6] (0.25 mg/kg s.c.) was 3.4 ± 0.16 nmol/g tissue, for 20 min; in data set [6] (1.00 mg/kg s.c.), 4.0 ± 0.18 nmol/g tissue, for 20 min; in data set [6] (5.00 mg/kg s.c.) it was 3.1 ± 0.13 nmol/g tissue, for 20 min. The “Release of dopamine, tuberculum olfactorium” value in data set [7] (0.25 mg/kg s.c.) is 3.8 ± 0.22 nmol/g tissue, for 20 min; in data set [7] (1.00 mg/kg s.c.), 4.6 ± 0.22 nmol/g tissue, for 20 min; in data set [7] (5.00 mg/kg s.c.), 3.1 ± 0.14 nmol/g tissue, for 20 min.
Regarding `CCCNC(CCC)Cc1cccc2ccccc12` (stereo not shown) [Compound No. 5, 1-(1-Naphthyl)-2-propylaminopentane], the activity at 24 h, 10 µM in data set [8] turned out to be 111 ± 4.02%. The activity at 24 h, 100 µM in data set [8] was 195 ± 9.16%. Also, the “Release of dopamine, substantia nigra” value was 5.6 ± 0.18 nmol/g tissue, for 20 min in data set [1] (0.25 mg/kg s.c.) and 4.4 ± 0.16 nmol/g tissue, for 20 min in data set [1] (1.00 mg/kg s.c.). The “Release of serotonin, raphe” value in data set [2] (0.25 mg/kg s.c.) is recorded as 0.425 ± 0.02 nmol/g tissue, for 20 min; in data set [2] (1.00 mg/kg s.c.), 0.571 ± 0.01 nmol/g tissue, for 20 min. The inhibition at 10 µM in data set [3] stood at 17.3%. Further, the “Release of noradrenaline” value is 3.9 ± 0.25 nmol/g tissue, for 20 min in data set [4] (0.25 mg/kg s.c.) and 4.4 ± 0.50 nmol/g tissue, for 20 min in data set [4] (1.00 mg/kg s.c.). The “Release of dopamine, striatum” value in data set [6] (0.25 mg/kg s.c.) is on record as 4.3 ± 0.14 nmol/g tissue, for 20 min; in data set [6] (1.00 mg/kg s.c.), 3.2 ± 0.14 nmol/g tissue, for 20 min. Further, the “Release of dopamine, tuberculum olfactorium” value in data set [7] (0.25 mg/kg s.c.) was 6.0 ± 0.16 nmol/g tissue, for 20 min; in data set [7] (1.00 mg/kg s.c.) it was 4.6 ± 0.13 nmol/g tissue, for 20 min.
